Measured values as given in ChEMBL document CHEMBL1201862, “PubChem BioAssay data set” (2004).
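Exposure lasted 48 hours, with cells grown in 96-well plates and compounds tested at five concentrations. GI50: concentration for 50% inhibition of growth.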 Activity calls are given as the source filed them. Cut-off read from the data, not from the text of the source: active = GI50 up to about 1.1 µM and inactive = higher.

What was measured:
Experiment in all cases: NCI tumour cell line growth inhibition, 48 h
786-0 = test system: 786-0
A498 = test system: A498
A549 = test system: A549
ACHN = test system: ACHN
CAKI-1 = test system: CAKI-1
CCRF-CEM = test system: CCRF-CEM
COLO 205 = test system: COLO 205
DU-145 = test system: DU-145
EKVX = test system: EKVX
HCC 2998 = test system: HCC 2998
HCT-15 = test system: HCT-15
HL-60 = test system: HL-60
HOP-62 = test system: HOP-62
IGROV-1 = test system: IGROV-1
K562 = test system: K562
KM12 = test system: KM12
M14 = test system: M14
MCF7 = test system: MCF7
MDA-MB-231 = test system: MDA-MB-231
MDA-MB-435 = test system: MDA-MB-435
MDA-N = test system: MDA-N
MOLT-4 = test system: MOLT-4
Malme-3M = test system: Malme-3M
NCI-H226 = test system: NCI-H226
NCI-H23 = test system: NCI-H23
NCI-H460 = test system: NCI-H460
NCI/ADR-RES = test system: NCI/ADR-RES
OVCAR-4 = test system: OVCAR-4
OVCAR-8 = test system: OVCAR-8
PC-3 = test system: PC-3
RPMI-8226 = test system: RPMI-8226
SF-268 = test system: SF-268
SF-295 = test system: SF-295
SK-MEL-28 = test system: SK-MEL-28
SK-MEL-5 = test system: SK-MEL-5
SK-OV-3 = test system: SK-OV-3
SN12C = test system: SN12C
SNB-19 = test system: SNB-19
SNB-75 = test system: SNB-75
SR = test system: SR
SW-620 = test system: SW-620
T47D = test system: T47D
TK-10 = test system: TK-10
U-251 = test system: U-251
UACC-257 = test system: UACC-257
UACC-62 = test system: UACC-62
UO-31 = test system: UO-31

O=C(CC(C(=O)c1cccs1)c1ccc2c(c1)OCO2)c1ccc(Br)cc1 (configuration not stated)
GI50 (786-0): > 100 µM (inactive) | GI50 (A498): > 100 µM (inactive) | GI50 (A549): > 100 µM (inactive) | GI50 (ACHN): > 100 µM (inactive) | GI50 (CAKI-1): > 100 µM (inactive) | GI50 (CCRF-CEM): > 100 µM (inactive) | GI50 (COLO 205): > 100 µM (inactive) | GI50 (DU-145): > 100 µM (inactive) | GI50 (EKVX): > 100 µM (inactive) | GI50 (HCC 2998): > 100 µM (inactive) | GI50 (HCT-15): > 100 µM | GI50 (HL-60): > 100 µM (inactive) | GI50 (HOP-62): > 100 µM (inactive) | GI50 (IGROV-1): > 100 µM (inactive) | GI50 (K562): > 100 µM (inactive) | GI50 (KM12): > 100 µM (inactive) | GI50 (M14): > 100 µM (inactive) | GI50 (MCF7): > 100 µM (inactive) | GI50 (MDA-MB-231): > 100 µM (inactive) | GI50 (MDA-MB-435): > 100 µM (inactive) | GI50 (MDA-N): > 100 µM (inactive) | GI50 (MOLT-4): > 100 µM (inactive) | GI50 (Malme-3M): > 100 µM (inactive) | GI50 (NCI-H226): > 100 µM (inactive) | GI50 (NCI-H23): > 100 µM (inactive) | GI50 (NCI-H460): > 100 µM (inactive) | GI50 (NCI/ADR-RES): > 100 µM (inactive) | GI50 (OVCAR-4): > 100 µM (inactive) | GI50 (OVCAR-8): > 100 µM (inactive) | GI50 (PC-3): > 100 µM (inactive) | GI50 (RPMI-8226): > 100 µM (inactive) | GI50 (SF-268): > 100 µM (inactive) | GI50 (SF-295): > 100 µM (inactive) | GI50 (SK-MEL-28): > 100 µM (inactive) | GI50 (SK-MEL-5): > 100 µM (inactive) | GI50 (SK-OV-3): > 100 µM (inactive) | GI50 (SN12C): > 100 µM (inactive) | GI50 (SNB-19): 8.51 µM (inactive) | GI50 (SNB-75): > 100 µM (inactive) | GI50 (SR): > 100 µM (inactive) | GI50 (SW-620): > 100 µM (inactive) | GI50 (T47D): > 100 µM (inactive) | GI50 (TK-10): > 100 µM (inactive) | GI50 (U-251): > 100 µM (inactive) | GI50 (UACC-257): > 100 µM (inactive) | GI50 (UACC-62): > 100 µM (inactive) | GI50 (UO-31): 14.9 µM (inactive)
